In one series the target is T1, Mouse Glucokinase (Mus musculus, UniProt P52792).
T1 sequence (P52792 1-465): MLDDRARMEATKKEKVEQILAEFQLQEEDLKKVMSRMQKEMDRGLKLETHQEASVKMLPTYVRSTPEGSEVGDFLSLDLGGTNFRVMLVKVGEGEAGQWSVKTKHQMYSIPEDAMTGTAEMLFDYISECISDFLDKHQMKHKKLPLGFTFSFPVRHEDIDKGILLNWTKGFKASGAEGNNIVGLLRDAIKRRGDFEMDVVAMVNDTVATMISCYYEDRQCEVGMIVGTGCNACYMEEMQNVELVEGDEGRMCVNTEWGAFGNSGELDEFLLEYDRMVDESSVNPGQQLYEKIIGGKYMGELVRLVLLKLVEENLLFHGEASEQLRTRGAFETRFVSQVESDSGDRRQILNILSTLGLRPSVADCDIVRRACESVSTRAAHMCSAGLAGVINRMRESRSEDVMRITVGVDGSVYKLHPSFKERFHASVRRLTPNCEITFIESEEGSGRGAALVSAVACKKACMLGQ
Kind of series: Glucokinase activation, mouse GK. The series is classed as biochemical.

A short description of series [1]: Metabolic stability in human liver microsomes. The series is classed as in vitro ADME.
In the next series the target is CYP450 2C9 (Homo sapiens, UniProt P11712). Kind of series: CYP450 2C9 inhibition. Format: in vitro ADME.
CYP450 2C9, sequence (P11712 whole entry): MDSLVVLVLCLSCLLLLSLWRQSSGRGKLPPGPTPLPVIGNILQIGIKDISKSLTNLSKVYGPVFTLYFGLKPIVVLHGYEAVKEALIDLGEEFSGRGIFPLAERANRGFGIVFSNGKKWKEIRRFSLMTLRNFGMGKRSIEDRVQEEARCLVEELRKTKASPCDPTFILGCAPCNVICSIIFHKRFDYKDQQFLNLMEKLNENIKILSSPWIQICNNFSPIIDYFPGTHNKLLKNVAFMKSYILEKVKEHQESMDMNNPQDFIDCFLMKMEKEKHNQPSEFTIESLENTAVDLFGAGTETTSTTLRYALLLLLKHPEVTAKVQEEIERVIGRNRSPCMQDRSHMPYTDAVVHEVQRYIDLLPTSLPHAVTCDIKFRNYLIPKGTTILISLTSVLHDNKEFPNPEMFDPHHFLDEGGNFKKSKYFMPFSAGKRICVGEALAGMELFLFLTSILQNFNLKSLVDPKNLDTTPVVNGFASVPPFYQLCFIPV
Another series deals with CYP450 2C19 (Homo sapiens, UniProt P33261). Kind of series: CYP450 2C19 inhibition. Format: in vitro ADME.
CYP450 2C19, sequence (P33261 whole entry): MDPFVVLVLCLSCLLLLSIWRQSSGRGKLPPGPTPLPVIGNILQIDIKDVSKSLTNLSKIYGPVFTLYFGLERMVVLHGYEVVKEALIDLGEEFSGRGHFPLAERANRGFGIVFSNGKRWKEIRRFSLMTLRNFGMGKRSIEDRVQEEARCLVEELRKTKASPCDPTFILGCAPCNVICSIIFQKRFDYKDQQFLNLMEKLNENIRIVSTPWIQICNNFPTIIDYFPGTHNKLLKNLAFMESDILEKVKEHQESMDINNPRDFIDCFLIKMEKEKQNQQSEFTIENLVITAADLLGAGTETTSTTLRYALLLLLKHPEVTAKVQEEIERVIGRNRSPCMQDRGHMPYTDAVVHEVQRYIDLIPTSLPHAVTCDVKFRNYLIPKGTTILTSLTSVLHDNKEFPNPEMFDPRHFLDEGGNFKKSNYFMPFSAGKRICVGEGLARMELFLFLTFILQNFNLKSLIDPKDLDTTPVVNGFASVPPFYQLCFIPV
A further series has as its target T2, CYP450 2C8 (Homo sapiens, UniProt P10632).
T2 sequence (P10632 1-490): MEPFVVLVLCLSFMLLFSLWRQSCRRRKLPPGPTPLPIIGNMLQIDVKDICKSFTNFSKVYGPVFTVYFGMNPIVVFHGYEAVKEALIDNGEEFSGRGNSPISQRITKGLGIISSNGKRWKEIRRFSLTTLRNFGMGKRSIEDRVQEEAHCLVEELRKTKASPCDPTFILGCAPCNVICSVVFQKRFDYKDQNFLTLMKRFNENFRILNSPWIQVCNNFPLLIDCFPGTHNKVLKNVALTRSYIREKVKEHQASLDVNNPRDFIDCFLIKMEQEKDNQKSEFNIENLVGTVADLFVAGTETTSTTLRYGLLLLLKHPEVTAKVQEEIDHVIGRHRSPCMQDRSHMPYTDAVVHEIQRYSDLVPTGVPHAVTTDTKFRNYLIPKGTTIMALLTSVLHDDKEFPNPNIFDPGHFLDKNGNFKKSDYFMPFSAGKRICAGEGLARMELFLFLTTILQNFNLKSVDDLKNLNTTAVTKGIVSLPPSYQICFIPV
Kind of series: CYP450 2C8 inhibition. Format: in vitro ADME.

A short description of the next series: Aqueous solubility. The series is classed as physicochemical. The note with it: aqueous medium (not further specified).
The target in the next series is T3, Human Glucokinase (Homo sapiens, UniProt P35557).
T3 construct: Full-length human hepatic GK (untagged) was expressed; made in house; host or cells: E. coli BL21 STAR (DE3)pLysS
T3 sequence (P35557 1-466 isoform P35557-2): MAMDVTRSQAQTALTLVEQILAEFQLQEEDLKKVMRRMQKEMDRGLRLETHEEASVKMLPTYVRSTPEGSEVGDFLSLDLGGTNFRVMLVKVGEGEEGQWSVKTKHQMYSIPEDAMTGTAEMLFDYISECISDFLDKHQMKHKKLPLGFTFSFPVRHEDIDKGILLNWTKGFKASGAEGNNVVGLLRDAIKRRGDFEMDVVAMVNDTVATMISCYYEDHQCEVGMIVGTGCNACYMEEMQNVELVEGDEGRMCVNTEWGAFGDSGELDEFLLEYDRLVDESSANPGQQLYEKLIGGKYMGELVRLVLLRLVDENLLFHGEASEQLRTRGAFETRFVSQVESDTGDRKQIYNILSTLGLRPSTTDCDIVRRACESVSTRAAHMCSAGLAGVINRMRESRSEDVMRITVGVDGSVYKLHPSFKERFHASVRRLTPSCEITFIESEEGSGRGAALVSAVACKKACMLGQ
Kind of series: Glucokinase tandem enzymatic assay (human GK). The series is classed as biochemical. As to the method:
Enzymatic activity of human glucokinase (GK) was measured by incubating GK, ATP, and glucose for discrete time periods followed by quenching with EDTA (ethylenediamine tetra-acetic acid). Relative amounts of product glucose-6-phosphate (G6P) were measured by then running a detection assay using G6P dehydrogenase and measuring the conversion of ThioNAD (thio-nicotinamide adenine dinucleotide) to ThioNADH (thio-dihydronicotinamide adenine dinucleotide) at a wavelength of 405 nm. This “uncoupled” enzymatic reaction is denoted as the GK “tandem” assay. Activation of GK by the compound can be assessed using this assay. The GK tandem assay protocol described below was followed using a range of activator compound concentrations from 0 to 100 μM at 5 and 12 mM of glucose. Human full-length glucokinase (GK, 15 nM) was incubated with 5 or 12 mM glucose in a 384 well black microtiter plate with a clear bottom. To initiate the GK reaction, magnesium-ATP (3 mM final concentration) was added to GK in buffer (final buffer conditions of 25 mM HEPES buffer, pH 7.1, containing 1 mM dithiothreitol and 5% DMSO). The total reaction volume was 20 μL. The reaction was allowed to proceed for ten minutes and was then quenched with 5 μL EDTA; 45 mM final). The components of the detection reaction, ThioNAD and G6PDH (glucose-6-phosphate dehydrogenase) (final concentrations of 650 μM and 3.33 Units, respectively), were then added together in a volume of 25 μL, (to give a total volume of 50 μL). Absorbance measurements were made at 405 nm on a SPECTRAMAX® Plus 384 absorbance plate reader (Molecular Devices). Absorbance was read, background glucose-6-phosphate levels were subtracted, after which activation was calculated as a percentage of control activity. Control activity was determined using GK in the presence of vehicle (DMSO), with background glucose-6-phosphate subtracted. Background glucose-6-phosphate was determined by pre-quenching GK with EDTA prior to reaction initiation with ATP. […]

The target of another series is CYP450 2D6 (Homo sapiens, UniProt P10635). Kind of series: CYP450 2D6 inhibition. Format: in vitro ADME.
CYP450 2D6, sequence (P10635 whole entry): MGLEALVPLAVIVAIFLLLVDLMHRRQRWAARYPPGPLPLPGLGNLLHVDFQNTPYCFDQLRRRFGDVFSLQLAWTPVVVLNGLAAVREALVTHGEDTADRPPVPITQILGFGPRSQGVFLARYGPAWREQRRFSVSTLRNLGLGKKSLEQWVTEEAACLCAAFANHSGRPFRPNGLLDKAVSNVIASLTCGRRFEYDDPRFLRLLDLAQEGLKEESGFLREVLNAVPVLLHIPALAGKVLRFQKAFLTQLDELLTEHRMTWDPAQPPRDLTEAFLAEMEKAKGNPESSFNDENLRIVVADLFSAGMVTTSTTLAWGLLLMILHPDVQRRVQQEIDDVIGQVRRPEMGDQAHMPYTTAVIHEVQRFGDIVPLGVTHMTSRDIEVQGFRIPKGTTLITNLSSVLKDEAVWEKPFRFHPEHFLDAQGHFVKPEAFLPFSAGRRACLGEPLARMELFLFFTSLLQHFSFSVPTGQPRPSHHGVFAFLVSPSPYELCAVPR
The target in a further series is CYP450 3A4 (Homo sapiens, UniProt P08684). Kind of series: CYP450 3A4 inhibition. Format: in vitro ADME.
CYP450 3A4, sequence (P08684 whole entry): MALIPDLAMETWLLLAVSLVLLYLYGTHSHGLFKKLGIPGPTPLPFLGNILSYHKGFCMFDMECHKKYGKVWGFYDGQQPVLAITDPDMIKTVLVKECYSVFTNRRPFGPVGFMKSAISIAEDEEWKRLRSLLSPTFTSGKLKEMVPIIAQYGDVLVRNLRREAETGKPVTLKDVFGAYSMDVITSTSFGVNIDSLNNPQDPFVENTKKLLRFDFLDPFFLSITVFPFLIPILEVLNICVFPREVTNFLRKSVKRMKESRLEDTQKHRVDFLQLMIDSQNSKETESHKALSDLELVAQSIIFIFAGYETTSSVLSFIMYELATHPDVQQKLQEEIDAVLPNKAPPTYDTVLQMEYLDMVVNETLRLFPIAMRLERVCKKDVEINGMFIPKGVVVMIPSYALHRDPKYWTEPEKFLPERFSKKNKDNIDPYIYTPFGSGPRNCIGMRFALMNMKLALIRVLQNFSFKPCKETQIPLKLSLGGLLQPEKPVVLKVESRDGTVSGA
Another series concerns the target T4, CYP450 1A2 (Homo sapiens, UniProt P05177).
T4 sequence (P05177 1-516): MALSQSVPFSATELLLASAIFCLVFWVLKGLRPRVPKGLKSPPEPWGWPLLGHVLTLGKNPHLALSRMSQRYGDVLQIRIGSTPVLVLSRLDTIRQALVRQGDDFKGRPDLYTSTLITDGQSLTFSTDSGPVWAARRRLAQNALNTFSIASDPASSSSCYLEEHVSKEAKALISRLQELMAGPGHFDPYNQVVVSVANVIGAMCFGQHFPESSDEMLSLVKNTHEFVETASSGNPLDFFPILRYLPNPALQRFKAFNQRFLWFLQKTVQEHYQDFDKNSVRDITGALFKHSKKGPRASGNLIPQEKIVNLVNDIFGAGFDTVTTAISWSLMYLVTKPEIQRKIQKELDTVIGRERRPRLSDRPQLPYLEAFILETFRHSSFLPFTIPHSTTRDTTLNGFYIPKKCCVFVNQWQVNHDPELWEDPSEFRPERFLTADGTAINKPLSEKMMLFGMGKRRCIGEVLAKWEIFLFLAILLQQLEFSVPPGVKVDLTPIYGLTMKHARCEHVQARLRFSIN
Kind of series: CYP450 1A2 inhibition. The series is classed as in vitro ADME.

The nature of series [2]: Pharmacokinetic study in mice (plasma and liver). The series is classed as in vivo. The note with it: male, C57BL/6J, mouse, C57/B16J mice, 10 mg/kg oral. As to the method:
Pharmacokinetic (PK) screening studies were carried out by methods known to one of ordinary skill in the art. For example, study compounds were administered orally to male C57 Black6j (C57B16J) mice (N=3 per time point) at 10 mg/kg as solutions in a PEG400/Cremphor EL/water (40/10/50) vehicle. The mice were fasted overnight prior to the PK study. Blood samples were taken at 0.5, 1, 2, and 4 hr post dose by cardiac bleeding. Blood samples (˜0.2 mL) were added with K2EDTA and centrifuged at 4° C. (1500-2000×g) to obtain plasma. Liver samples (N=3) were collected at 1 hr post dose. The liver tissues were homogenized with 3 volumes of water to form uniform homogenates. Both plasma and liver samples were stored at −20° C. before they were analyzed by LC/MS/MS. The plasma AUC were calculated using linear and log trapezoidal summations. The liver-to-plasma (L/P) ratio was calculated by dividing the total concentration in liver with plasma concentrations for respective mice. The average of L/P ratios from 3 mice was reported together with the standard deviation.

Series [3] concerns male DIO (diet-induced obese) C57BL/6J mice. Kind of series: Oral glucose tolerance test (OGTT) in DIO mice. Format: in vivo, mouse. As to the method:
Oral glucose tolerance tests were carried out on male DIO (diet-induced obese) C57BL/6J mice fed a high fat diet (60% kcal from fat) for 26 weeks prior to experimentation. Mice were fasted overnight before use for experiments. A test compound or vehicle (either: 1) 40% PEG 400+10% Cremophore+50% water or 2) 10% dimethyl acetamide+10% ethanol+10% Cremophore+70% water) was given orally 60 min before oral administration of a glucose solution at a dose of 2 g/kg body weight (oral glucose tolerance test; OGTT). Blood glucose levels were measured from tail-bled samples taken at different time points before and after administration of glucose (time course of 2 hours). A time curve of the blood glucose was generated and the change from baseline area-under-the curve (ΔAUC) from 0-120 min was calculated (the time glucose administration being time zero).

A short description of series [4]: Metabolic stability, mouse. Format: in vitro ADME.

≈ marks a conversion by molar mass, not a printed value. Where two headings read alike, the source gives them in different places. Bounds are passed on as bounds.

One may read the EC50 as the concentration at which the effect is half-maximal. A low value points to an effect from little substance. As usually defined, the IC50 is the concentration needed to halve the response being measured. A high value points to weaker potency. As a reminder, the solubility is the dissolved amount per volume that the medium holds. Lower therefore signals a poorly soluble substance. One may read the AUC(0-t) as the area under the concentration-time curve up to a stated or last time point. Lower therefore signals less exposure. On to `CC[C@@H](COC)Oc1cc(Oc2ccc(S(C)(=O)=O)nc2)cc(C(=O)Nc2nc(CP3(=O)OCCCO3)cs2)c1` [Example 1, 3-(((1S)-1-(methoxymethyl)propyl)oxy)-5-((6-(methylsulfonyl)-3-pyridinyl)oxy)-N-(4-((2-oxido-1,3,2-dioxaphosphinan-2-yl)methyl)-1,3-thiazol-2-yl)benzamide], for which the EC50 at Mouse Glucokinase turned out to be 0.037 µM; on Human Glucokinase it was 0.036 µM. In addition, the Emax on Mouse Glucokinase (read-out: Mouse Glucokinase Ymax (maximal activation)) and on Human Glucokinase (read-out: Human Glucokinase Ymax (maximal activation)) was 194% in each case. Further, in series [1], the “Metabolic Stability Human Liver Microsomes (0.5 μM)” value is recorded as 80%. Also, the half-maximal inhibitory concentration (IC50) against CYP450 2C9 is 26.8 µM; against CYP450 2C19, > 40 µM; against CYP450 2C8, 24.6 µM; against Human Glucokinase, 0.095 µM; on CYP450 2D6, > 40 µM; against CYP450 3A4 it was > 40 µM. Moreover, the IC50 against CYP450 1A2 is > 40 µM. The compound further showed a solubility in “Aqueous solubility” of 74 µg/mL (≈ 121 µM). Also, in series [2] (liver/plasma, po, 10 mg/kg, read-out: Liver/Plasma ratio), the Kp at 1 h was ~39. In [2] (plasma, 0-4 hr), this compound yielded an AUC(0-t) of 1.53 µM·h. The compound also showed a concentration at 0.5 h in series [2] (plasma, 0.5 hr post dose) of 604 ± 234 nM. Also, the concentration at 1 h stood at 631 ± 286 nM in series [2] (plasma, 1 hr post dose, read-out: Plasma (1 hr)) and 21600 ± 1360 nM in [2] (liver concentration 1 hr post dose, read-out: Liver (1 hr)). Moreover, the concentration at 2 h in series [2] (plasma, 2 hr post dose) is 398 ± 193 nM. For the same compound, the concentration at 4 h in [2] (plasma, 4 hr post dose) is 193 ± 133 nM. In addition, in series [3] (10 μmol/kg dose), the “reduction in glucose AUC (after an oral glucose tolerance test in diet-induced obese mice)” value was found to be 47%. Also, the “Glucose lowering (AUC) (120 min)” value in series [3] (OGTT, DIO mice, oral dose 10 μmol/kg, AUC 0-120 min) is −47%. Moreover, the “Metabolic Stability Mouse (0.5 μM)” value in series [4] amounted to 92%.

Values taken from patent US10604541B2, “Glucokinase activators and methods of using same” (BRISTOL-MYERS SQUIBB COMPANY, priority 2016, dated 2020).
